According to ChEMBL document CHEMBL1133125, “A sigma-1 receptor selective analogue of BD1008. A potential substitute for (+)-opioids in sigma receptor binding assays” (Bioorg Med Chem Lett, 2000):

Biological target: Sigma 2 receptor
Assay: Binding affinity against sigma 2 opioid receptor using 3[H]-DTG in the presence of dextrallorphan as radioligand

SMILES | Ki [nM]
CN(CCc1ccc(Cl)c(Cl)c1)CCN1CCCC1 | 8.1
O=C(Cc1ccc(Cl)c(Cl)c1)OCCN1CCCC1 | > 10000
